Converted amounts (≈) assume the structure as drawn.
Experiments:
Test in all cases: ≥ marks a high value that may be exact or a test limit, other limits are often not marked, values filed in µg/mL are converted to µM
[1] = tested on: Acinetobacter baumannii ATCC 17987
[2] = tested on: Acinetobacter baumannii AYE
[3] = tested on: Enterococcus faecalis NCTC 12201
[4] = tested on: Enterococcus faecalis NCTC 12204
[5] = tested on: Enterococcus faecalis NCTC 775
[6] = tested on: Escherichia coli NCTC 12923
Klebsiella pneumoniae M6 = tested on: Klebsiella pneumoniae M6
[7] = tested on: Klebsiella pneumoniae NCTC 13368
[8] = tested on: Pseudomonas aeruginosa NCTC 13437
[9] = tested on: Pseudomonas aeruginosa PAO1
[10] = tested on: Pseudomonas syringae pv. tomato
Staphylococcus aureus 15 = tested on: Staphylococcus aureus 15
[11] = tested on: Staphylococcus aureus NCTC 9144
[12] = tested on: Xanthomonas axonopodis pv. phaseoli
[13] = tested on: Bacillus subtilis ATCC 6633
[14] = tested on: Escherichia coli ATCC 10536
[15] = tested on: Escherichia coli DH5alpha
[16] = tested on: Staphylococcus aureus ATCC 9144
Escherichia coli UB1005 = tested on: Escherichia coli UB1005
[17] = tested on: Salmonella enterica subsp. enterica serovar Pullorum C79-13
[18] = tested on: Salmonella enterica subsp. enterica serovar Typhi CMCC 50071
[19] = tested on: Salmonella enterica subsp. enterica serovar Typhimurium ATCC 14028
[20] = tested on: Salmonella enterica subsp. enterica serovar Typhimurium C77-31
[21] = tested on: Staphylococcus aureus ATCC 25923
[22] = tested on: Staphylococcus aureus ATCC 29213
[23] = tested on: Staphylococcus epidermidis ATCC 12228
[24] = tested on: Bacillus subtilis KCTC 3068
Enterococcus faecalis VR = tested on: Enterococcus faecalis VR
Enterococcus faecalis = tested on: Enterococcus faecalis
Enterococcus faecium VR = tested on: Enterococcus faecium VR
Enterococcus faecium = tested on: Enterococcus faecium
Escherichia coli JM109 = tested on: Escherichia coli JM109
[25] = tested on: Escherichia coli KCTC 1682
[26] = tested on: Pseudomonas aeruginosa KCTC 1637
[27] = tested on: Salmonella typhimurium KCTC 1926
[28] = tested on: Staphylococcus aureus ATCC 6538P
[29] = tested on: Staphylococcus aureus KCTC 1621
Staphylococcus aureus MR = tested on: Staphylococcus aureus MR
Staphylococcus aureus = tested on: Staphylococcus aureus
[30] = tested on: Staphylococcus epidermidis KCTC 1917

CC[C@H](C)[C@H](NC(=O)[C@H](CCC(=O)O)NC(=O)[C@H](CC(N)=O)NC(=O)[C@H](CCCCN)NC(=O)[C@H](CC(C)C)NC(=O)[C@H](CCCCN)NC(=O)[C@H](CCCCN)NC(=O)[C@H](CCCN=C(N)N)NC(=O)[C@@H](NC(=O)[C@H](CCCCN)NC(=O)[C@H](CCC(=O)O)NC(=O)[C@H](CCCCN)NC(=O)CNC(=O)[C@H](C)N)[C@@H](C)CC)C(=O)N[C@@H](CCCCN)C(=O)N[C@@H](CCCCN)C(=O)N[C@@H](CCCCN)C(=O)NCC(=O)N[C@@H](CCCN=C(N)N)C(=O)N[C@@H](CCCCN)C(=O)N[C@@H](C)C(=O)N[C@H](C(=O)N[C@H](C(=O)N[C@@H](C)C(=O)N[C@@H](Cc1c[nH]c2ccccc12)C(=O)O)[C@@H](C)CC)C(C)C [AGKEKIRKKLKNEIKKKGRKAVIAW]
MIC [1]: 21.9 µM (≈ 64 µg/mL)
MIC [2]: 21.9 µM (≈ 64 µg/mL)
MIC [3]: ≥ 43.8 µM
MIC [4]: ≥ 43.8 µM
MIC [5]: ≥ 43.8 µM
MIC [6]: 11 µM (≈ 32 µg/mL)
MIC (Klebsiella pneumoniae M6): ≥ 43.8 µM
MIC [7]: ≥ 43.8 µM
MIC [8]: ≥ 43.8 µM
MIC [9]: > 43.8 µM
MIC [10]: 1.37 µM (≈ 4 µg/mL)
MIC (Staphylococcus aureus 15): ≥ 43.8 µM
MIC [11]: ≥ 43.8 µM
MIC [12]: 0.342 µM (≈ 1 µg/mL)

CC[C@H](C)[C@H](NC(=O)[C@H](CCC(=O)O)NC(=O)[C@H](CC(N)=O)NC(=O)[C@H](CCCCN)NC(=O)[C@H](CC(C)C)NC(=O)[C@H](Cc1ccc(O)cc1)NC(=O)[C@H](CCC(N)=O)NC(=O)[C@H](CCCN=C(N)N)NC(=O)[C@@H](NC(=O)[C@@H](NC(=O)[C@H](CCC(=O)O)NC(=O)[C@H](CCCCN)NC(=O)CNC(=O)[C@H](C)N)[C@@H](C)O)[C@@H](C)CC)C(=O)N[C@@H](CCCCN)C(=O)N[C@@H](CCCCN)C(=O)N[C@@H](CCCCN)C(=O)NCC(=O)N[C@@H](CCCN=C(N)N)C(=O)N[C@@H](CCCCN)C(=O)N[C@@H](C)C(=O)N[C@H](C(=O)N[C@H](C(=O)N[C@@H](C)C(=O)N[C@@H](Cc1c[nH]c2ccccc12)C(=O)O)[C@@H](C)CC)C(C)C [AGKETIRQYLKNEIKKKGRKAVIAW]
MIC [1]: 21.8 µM (≈ 64 µg/mL)
MIC [2]: 10.9 µM (≈ 32 µg/mL)
MIC [3]: ≥ 43.7 µM
MIC [4]: ≥ 43.7 µM
MIC [5]: ≥ 43.7 µM
MIC [6]: 21.8 µM (≈ 64 µg/mL)
MIC (Klebsiella pneumoniae M6): ≥ 43.7 µM
MIC [7]: ≥ 43.7 µM
MIC [8]: ≥ 43.7 µM
MIC [9]: > 43.7 µM
MIC [10]: 5.46 µM (≈ 16 µg/mL)
MIC (Staphylococcus aureus 15): ≥ 43.7 µM
MIC [11]: ≥ 43.7 µM
MIC [12]: 1.37 µM (≈ 4 µg/mL)

CC[C@H](C)[C@H](NC(=O)CNC(=O)CN)C(=O)N[C@@H](CC(C)C)C(=O)N[C@H](C(=O)N[C@@H](C)C(=O)N[C@@H](CCCCN)C(=O)N[C@@H](CC(C)C)C(=O)N[C@H](C(=O)N[C@H](C(=O)N[C@H](C(=O)N[C@@H](CC(C)C)C(=O)NCC(=O)N1CCC[C@H]1C(=O)N[C@@H](C)C(=O)N[C@@H](CC(C)C)C(=O)N[C@H](C(=O)N[C@@H](CO)C(=O)N[C@@H](Cc1c[nH]c2ccccc12)C(=O)N[C@H](C(=O)N[C@@H](CCCCN)C(=O)N[C@@H](CCCN=C(N)N)C(=O)N[C@@H](CCCCN)C(=O)N[C@@H](CCCN=C(N)N)C(=O)N[C@@H](CCC(N)=O)C(=O)N[C@@H](CCC(N)=O)C(N)=O)[C@@H](C)CC)[C@@H](C)CC)[C@@H](C)O)[C@@H](C)O)C(C)C)C(C)C [GGILVAKLVTTLGPALISWIKRKRQQ]
MIC [13]: 5.8 µM (≈ 16.5 µg/mL)
MIC [14]: 4.7 µM (≈ 13.4 µg/mL)
MIC [15]: 4.8 µM (≈ 13.7 µg/mL)
MIC [16]: 5 µM (≈ 14.2 µg/mL)

NC(=O)CC[C@H](NC(=O)[C@H](Cc1c[nH]c2ccccc12)NC(=O)[C@H](CCCN=C(N)N)NC(=O)[C@H](CCCN=C(N)N)NC(=O)[C@@H]1CCCN1C(=O)[C@@H](N)Cc1ccccc1)C(=O)N[C@@H](Cc1c[nH]c2ccccc12)C(=O)N[C@@H](CCCN=C(N)N)C(=O)N[C@@H](CCCN=C(N)N)C(=O)N1CCC[C@H]1C(=O)N[C@@H](Cc1ccccc1)C(N)=O [FPRRWQWRRPF]
MIC (Escherichia coli UB1005): 8 µM (≈ 13 µg/mL)
MIC [17]: 16 µM (≈ 26.1 µg/mL)
MIC [18]: ≥ 128 µM
MIC [19]: 32 µM (≈ 52.2 µg/mL)
MIC [20]: ≥ 64 µM
MIC [21]: 32 µM (≈ 52.2 µg/mL)
MIC [22]: 32 µM (≈ 52.2 µg/mL)
MIC [23]: 64 µM (≈ 104 µg/mL)

CC[C@H](C)[C@H](NC(=O)[C@H](C)NC(=O)[C@H](CC(C)C)NC(=O)[C@H](CS)NC(=O)[C@H](Cc1cnc[nH]1)NC(=O)[C@H](C)NC(=O)[C@H](C)N)C(=O)NCC(=O)N[C@@H](CCCN=C(N)N)C(=O)N[C@@H](CCCN=C(N)N)C(N)=O [AAHCLAIGRR]
MIC [24]: 7.5 µM
MIC (Enterococcus faecalis VR): 30 µM
MIC (Enterococcus faecalis): 15 µM
MIC (Enterococcus faecium VR): 15 µM
MIC (Enterococcus faecium): 15 µM
MIC (Escherichia coli JM109): 15 µM
MIC [25]: 15 µM
MIC [26]: 15 µM
MIC [27]: 15 µM
MIC [28]: 4.68 µM
MIC [29]: 7.5 µM
MIC (Staphylococcus aureus MR): 30 µM
MIC (Staphylococcus aureus): > 60 µM
MIC [30]: 15 µM

CC(C)C[C@H](NC(=O)[C@H](CS)NC(=O)[C@H](CCCCN)NC(=O)[C@H](C)NC(=O)[C@H](C)N)C(=O)N[C@H](C(=O)N[C@@H](CCC(N)=O)C(=O)N[C@@H](CCCN=C(N)N)C(=O)N[C@@H](CCCN=C(N)N)C(=O)N[C@@H](CCCN=C(N)N)C(N)=O)C(C)C [AAKCLVQRRR]
MIC [24]: 15 µM (≈ 18 µg/mL)
MIC (Enterococcus faecalis VR): 30 µM (≈ 36 µg/mL)
MIC (Enterococcus faecalis): 30 µM (≈ 36 µg/mL)
MIC (Enterococcus faecium VR): 30 µM (≈ 36 µg/mL)
MIC (Enterococcus faecium): 30 µM (≈ 36 µg/mL)
MIC [25]: 30 µM (≈ 36 µg/mL)
MIC [26]: 7.5 µM (≈ 9 µg/mL)
MIC [27]: 7.5 µM (≈ 9 µg/mL)
MIC [29]: 15 µM (≈ 18 µg/mL)
MIC (Staphylococcus aureus MR): 15 µM (≈ 18 µg/mL)
MIC [30]: 7.5 µM (≈ 9 µg/mL)

CC[C@H](C)[C@H](NC(=O)[C@H](C)NC(=O)[C@H](CC(C)C)NC(=O)[C@H](CS)NC(=O)[C@H](Cc1cnc[nH]1)NC(=O)[C@H](C)NC(=O)[C@H](C)N)C(=O)NCC(=O)N[C@@H](CCCN=C(N)N)C(=O)N[C@@H](CCCCN)C(N)=O [AAHCLAIGRK]
MIC [24]: 7.5 µM
MIC (Enterococcus faecalis VR): 30 µM
MIC (Enterococcus faecalis): 15 µM
MIC (Enterococcus faecium VR): 3.8 µM
MIC (Enterococcus faecium): 7.5 µM
MIC [25]: 7.5 µM
MIC [26]: 7.5 µM
MIC [27]: 7.5 µM
MIC [29]: 7.5 µM
MIC (Staphylococcus aureus MR): 7.5 µM
MIC [30]: 7.5 µM
